Reference: patent US20220213061A9, “HETEROCYCLIC COMPOUNDS FOR MODULATING NR2F6” (TES Pharma S.r.l., priority 2020, published 2022)
Counter-ions that a name gives are not always drawn.

The compounds below were run against T1, recombinant human NR2F6 protein (Homo sapiens, UniProt P10588) (assay: Biochemical NR2F6 binding assay (EnSpire label-free)). Conditions: label-free binding to immobilized purified recombinant human NR2F6; ligands 1 nM to 100 uM, 1% DMSO.
T1 sequence (P10588 1-404): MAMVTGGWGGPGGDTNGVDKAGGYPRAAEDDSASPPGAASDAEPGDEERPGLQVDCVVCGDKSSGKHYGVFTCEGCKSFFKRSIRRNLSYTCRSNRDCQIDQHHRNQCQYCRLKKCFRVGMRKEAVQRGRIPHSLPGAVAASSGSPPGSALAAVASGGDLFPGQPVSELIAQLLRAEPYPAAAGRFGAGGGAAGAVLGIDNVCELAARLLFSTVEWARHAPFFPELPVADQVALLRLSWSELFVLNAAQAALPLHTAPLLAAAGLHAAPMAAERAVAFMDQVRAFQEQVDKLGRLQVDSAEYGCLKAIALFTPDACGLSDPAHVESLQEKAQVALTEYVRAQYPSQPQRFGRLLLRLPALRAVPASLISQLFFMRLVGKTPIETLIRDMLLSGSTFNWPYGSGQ
Method: Purified recombinant human NR2F6 protein was dissolved in immobilization buffer at pH 4.5 and then immobilized in EnSpire-LFB High-Sensitivity User-Activated Plates at the concentration of 50 μg/well plate and left in incubation for 16 h at 4° C. Wells with only immobilization buffer were used as negative control to check the protein coating efficiency. NR2F6 ligands were resuspended in DMSO at the concentration of 10 mM, then dispensed into a plate containing assay buffer at concentrations ranging from 1 nM to 100 uM using an HP-dispenser. DMSO was normalized at the 1% of volume of each well. The final readings were taken over a period of 30 minutes. The label-free responses were measured as shifts in reflected wavelength and are expressed in picometers (pm). Results were analyzed using the EnSpire label-free user interface software, and EC50 and graphs were generated using GraphPad PRISM software. In the tables below, A is <1 μM; B is 1 to 10 μM; C is 10 to 50 μM; and D is >50 μM.

| SMILES | EC50 [µM] |
| --- | --- |
| O=C(Nc1cccc(-c2cccnc2)c1)[C@@H]1CN(C2CCOCC2)C[C@H]1c1ccccc1 (racemic) [Compound I-54, (±)-trans-4-Phenyl-N-[3-(pyridin-3-yl)phenyl]-1-(tetrahydro-2H-pyran-4-yl)pyrrolidine-3-carboxamide] | > 50 |
| CC(=O)N1C[C@@H](C(=O)Nc2cccc(-c3cccnc3)c2)[C@H](c2ccccc2)C1 (racemic) [Compound I-55, (±)-trans-1-Acetyl-4-phenyl-N-[3-(pyridin-3-yl)phenyl]pyrrolidine-3-carboxamide] | > 50 |
| c1ccc([C@@H]2CNC[C@@H]2Oc2cccc3cnccc23)cc1 (racemic) [Compound I-61, 5-{[(±)-cis-4-Phenylpyrrolidin-3-yl]oxy}isoquinoline dihydrochloride] | 1 to 10 |
| O=C(Nc1cccc(-c2cccnc2)c1)[C@@H]1CN(c2ccccc2)C[C@H]1c1ccccc1 (racemic) [Compound I-62, (±)-trans-1,4-Diphenyl-N-[3-(pyridin-3-yl)phenyl]pyrrolidine-3-carboxamide] | < 1 |
| O=C(Nc1cccc(-c2cccnc2)c1)[C@@H]1CN(Cc2ccccc2)C[C@H]1c1ccccc1 (racemic) [Compound I-63, (±)-trans-1-Benzyl-4-phenyl-N-[3-(pyridin-3-yl)phenyl]pyrrolidine-3-carboxamide] | 1 to 10 |
| c1ccc([C@H]2CNC[C@@H]2Oc2cccc3cnccc23)cc1 (racemic) [Compound I-64, 5-{[(±)-trans-4-Phenylpyrrolidin-3-yl]oxy}isoquinoline dihydrochloride] | 1 to 10 |
| O=C(Nc1cccc2c1OCCO2)[C@H]1CNC[C@@H]1c1ccccc1 (racemic) [Compound I-65, (±)-trans-N-(2,3-Dihydro-1,4-benzodioxin-5-yl)-4-phenylpyrrolidine-3-carboxamide hydrochloride] | > 50 |
| O=C(Nc1ccccc1Oc1cccnc1)[C@H]1CNC[C@@H]1c1ccccc1 (racemic) [Compound I-68, (±)-trans-4-Phenyl-N-[2-(pyridin-3-yloxy)phenyl]pyrrolidine-3-carboxamide dihydrochloride] | 1 to 10 |
| O=C(Nc1cccc(Oc2ccccc2)c1)[C@H]1CNC[C@@H]1c1ccccc1 (racemic) [Compound I-69, (±)-trans-N-(3-Phenoxyphenyl)-4-phenylpyrrolidine-3-carboxamide hydrochloride] | < 1 |
| O=C(Nc1ccc(Oc2cccnc2)cc1)[C@H]1CNC[C@@H]1c1ccccc1 (racemic) [Compound I-70, (±)-trans-4-Phenyl-N-[4-(pyridin-3-yloxy)phenyl]pyrrolidine-3-carboxamide dihydrochloride] | > 50 |
| O=C(Nc1cccc(-c2cccnc2)c1)[C@H]1CNC[C@@H]1C1CCCCC1 (racemic) [Compound I-71, (±)-trans 4-Cyclohexyl-N-[3-(pyridin-3-yl)phenyl]pyrrolidine-3-carboxamide dihydrochloride] | 1 to 10 |
| O=C(Nc1cccc(-c2cccnc2)c1)[C@H]1CNC[C@@H]1Cc1ccccc1 (racemic) [Compound I-72, (±)-trans 4-Benzyl-N-[3-(pyridin-3-yl)phenyl]pyrrolidine-3-carboxamide dihydrochloride] | > 50 |
| c1ccc([C@H]2CNC[C@@H]2OCc2cccc3cnccc23)cc1 (racemic) [Compound I-73, 5-({[(±)-trans-4-Phenylpyrrolidin-3-yl]oxy}methyl)isoquinoline dihydrochloride] | > 50 |
| O=C(Nc1cccc2ocnc12)[C@H]1CNC[C@@H]1c1ccccc1 (racemic) [Compound I-76, (±)-trans-N-(1,3-Benzoxazol-4-yl)-4-phenylpyrrolidine-3-carboxamide dihydrochloride] | > 50 |
| O=C(Nc1cccc(Cc2ccccc2)c1)[C@@H]1CNC[C@H]1c1ccccc1 (racemic) [Compound I-85, (±)-trans-N-(3-Benzylphenyl)-4-phenylpyrrolidine-3-carboxamide hydrochloride] | 1 to 10 |
| O=C(c1cccc2cnccc12)[C@H]1CNC[C@@H]1c1ccccc1 (racemic) [Compound I-100, (±)-trans Isoquinolin-5-yl[(3S,4R)-4-phenylpyrrolidin-3-yl]methanone dihydrochloride] | 1 to 10 |

Further lines, results first:

| EC50 [µM] | SMILES |
| --- | --- |
| 1 to 10 | O=C(Nc1cccc(OC2CCOCC2)c1)[C@@H]1CNC[C@H]1c1ccccc1 (racemic) [Compound I-86, (±)-trans-N-[3-(Tetrahydro-2H-pyran-4-yloxy)phenyl]-4-phenylpyrrolidine-3-carboxamide hydrochloride] |
| 1 to 10 | O=C(Nc1ccc(C2CCCCC2)cc1)[C@@H]1CNC[C@H]1c1ccccc1 (racemic) [Compound I-87, (±)-trans-N-(4-Cyclohexylphenyl)-4-phenylpyrrolidine-3-carboxamide hydrochloride] |
| < 1 | O=C(Nc1cccc(Nc2ccccc2)c1)[C@H]1CNC[C@@H]1c1ccccc1 (racemic) [Compound I-89, (±)-trans-4-Phenyl-N-[3-(phenylamino)phenyl]pyrrolidine-3-carboxamide hydrochloride] |
| < 1 | N#Cc1ccc(Oc2cccc(NC(=O)[C@H]3CNC[C@@H]3c3ccccc3)c2)cc1 (racemic) [Compound I-90, (±)-trans-N-[3-(4-Cyanophenoxy)phenyl]-4-phenylpyrrolidine-3-carboxamide hydrochloride] |
| 1 to 10 | O=C(N[C@H]1C[C@H](Oc2ccc(F)cc2)C1)[C@H]1CNC[C@@H]1c1ccccc1 (racemic) [Compound I-91, (±)-trans-N-[trans-3-(4-Fluorophenoxy)cyclobutyl]-4-phenylpyrrolidine-3-carboxamide hydrochloride] |
| 1 to 10 | O=C(Nc1cccc(Oc2ccc(C(F)(F)F)cc2)c1)[C@H]1CNC[C@@H]1c1ccccc1 (racemic) [Compound I-92, (±)-trans-4-Phenyl-N-{3-[4-(trifluoromethyl)phenoxy]phenyl}pyrrolidine-3-carboxamide hydrochloride] |
| < 1 | O=C(Nc1cccc(Oc2ccc(F)cc2)c1)[C@H]1CNC[C@@H]1c1ccccc1 (racemic) [Compound I-93, (±)-trans-N-[3-(4-Fluorophenoxy)phenyl]-4-phenylpyrrolidine-3-carboxamide hydrochloride] |
| 1 to 10 | O=C(c1ccccc1)c1cccc(NC(=O)[C@H]2CNC[C@@H]2c2ccccc2)c1 (racemic) [Compound I-94, (±)-trans-4-Phenyl-N-[3-(phenylcarbonyl)phenyl]pyrrolidine-3-carboxamide hydrochloride] |
| 1 to 10 | Cc1cccc(Oc2cccc(NC(=O)[C@H]3CNC[C@@H]3c3ccccc3)c2)c1 (racemic) [Compound I-97, (±)-trans-4-Phenyl-N-[3-(3-methylphenoxy)phenyl]pyrrolidine-3-carboxamide hydrochloride] |
| > 50 | O=C(Nc1cccc(Oc2ccncc2)c1)[C@H]1CNC[C@@H]1c1ccccc1 (racemic) [Compound I-98, (±)-trans-4-Phenyl-N-[3-(pyridin-4-yloxy)phenyl]pyrrolidine-3-carboxamide dihydrochloride] |
| > 50 | O=C(Nc1cccc(Oc2ccccn2)c1)[C@H]1CNC[C@@H]1c1ccccc1 (racemic) [Compound I-99, (±)-trans-4-Phenyl-N-[3-(pyridin-2-yloxy)phenyl]pyrrolidine-3-carboxamide dihydrochloride] |
| 10 to 50 | O=C(N[C@H]1C[C@H](Oc2cccnc2)C1)[C@H]1CNC[C@@H]1c1ccccc1 (racemic) [Compound I-101, (±)-trans-N-[trans-3-(Pyridyn-3-yloxy)cyclobutyl]-4-phenylpyrrolidine-3-carboxamide dihydrochloride] |
| 1 to 10 | Cc1ccc(O[C@H]2C[C@H](NC(=O)[C@H]3CNC[C@@H]3c3ccccc3)C2)cn1 (racemic) [Compound I-102, (±)-trans-N-{trans-3-[(6-Methylpyridin-3-yl)oxy]cyclobutyl}-4-phenylpyrrolidine-3-carboxamide dihydrochloride] |
| < 1 | O=C(Nc1cccc(Oc2ccc(C(F)(F)F)nc2)c1)[C@H]1CNC[C@@H]1c1ccccc1 (racemic) [Compound I-104, (±)-trans-4-Phenyl-N-(3-{[6-(trifluoromethyl)pyridin-3-yl]oxy}phenyl) pyrrolidine-3-carboxamide dihydrochloride] |
| 1 to 10 | Cc1ccc(Oc2cccc(NC(=O)[C@H]3CNC[C@@H]3c3ccccc3)c2)cn1 (racemic) [Compound I-105, (±)-trans-4-Phenyl-N-{3-[(6-methylpyridin-3-yl)oxy]phenyl}pyrrolidine-3-carboxamide dihydrochloride] |
| < 1 | O=C(Nc1cccc(Nc2cccnc2)c1)[C@H]1CNC[C@@H]1c1ccccc1 (racemic) [Compound I-106, (±)-trans-4-Phenyl-N-[3-(pyridin-3-ylamino)phenyl]pyrrolidine-3-carboxamide dihydrochloride] |
